Data on 11 compounds can be found in publication PMC9884089 (Journal of Medicinal Chemistry, 2023).

Data set [1] concerns PARP10. The note with it: Figure 1 ref 35; cited from earlier work.
In data set [2] the target is T1, TNKS2 (Homo sapiens, UniProt Q9H2K2).
T1 sequence (Q9H2K2 1-1166): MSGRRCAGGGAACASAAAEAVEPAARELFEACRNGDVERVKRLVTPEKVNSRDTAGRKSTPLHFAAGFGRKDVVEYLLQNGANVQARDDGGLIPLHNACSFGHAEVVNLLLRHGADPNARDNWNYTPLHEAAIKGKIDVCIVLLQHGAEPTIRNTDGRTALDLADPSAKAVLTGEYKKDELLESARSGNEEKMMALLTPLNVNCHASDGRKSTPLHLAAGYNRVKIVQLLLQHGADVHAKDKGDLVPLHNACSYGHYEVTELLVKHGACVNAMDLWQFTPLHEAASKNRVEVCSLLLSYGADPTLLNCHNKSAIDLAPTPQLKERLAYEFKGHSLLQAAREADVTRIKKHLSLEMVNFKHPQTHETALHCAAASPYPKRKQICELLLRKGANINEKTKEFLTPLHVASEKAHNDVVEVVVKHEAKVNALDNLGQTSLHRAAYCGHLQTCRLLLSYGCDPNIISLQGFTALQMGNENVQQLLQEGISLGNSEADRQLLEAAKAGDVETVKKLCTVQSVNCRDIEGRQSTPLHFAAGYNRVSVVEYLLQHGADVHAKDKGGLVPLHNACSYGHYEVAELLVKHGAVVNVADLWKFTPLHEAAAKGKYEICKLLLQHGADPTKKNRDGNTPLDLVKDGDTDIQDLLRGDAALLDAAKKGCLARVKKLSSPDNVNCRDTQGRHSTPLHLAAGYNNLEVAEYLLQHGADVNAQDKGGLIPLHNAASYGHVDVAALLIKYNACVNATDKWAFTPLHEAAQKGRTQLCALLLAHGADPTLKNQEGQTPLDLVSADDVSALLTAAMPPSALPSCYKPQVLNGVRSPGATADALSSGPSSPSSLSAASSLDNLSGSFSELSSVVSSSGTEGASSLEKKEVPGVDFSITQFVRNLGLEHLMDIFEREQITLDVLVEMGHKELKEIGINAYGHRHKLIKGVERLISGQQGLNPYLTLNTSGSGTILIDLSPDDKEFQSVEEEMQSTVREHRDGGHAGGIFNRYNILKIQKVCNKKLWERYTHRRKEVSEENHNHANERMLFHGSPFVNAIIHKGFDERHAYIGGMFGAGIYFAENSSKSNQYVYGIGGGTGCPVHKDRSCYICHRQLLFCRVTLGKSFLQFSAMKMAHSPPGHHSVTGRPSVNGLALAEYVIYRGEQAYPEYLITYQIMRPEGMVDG
The data set can be described thus: biochemical. The note with it: read-out: TNKS2 IC50; > = less than 50% inhibition at highest concentration. Here is the method: The proteins used in Tables 1–3 were produced as described earlier. Dockerin constructs to allow enhanced activity assays for mono-ARTs (Table 4) were produced in Escherichia coli with an N-terminal maltose binding protein (MBP) and a C-terminal dockerin domain from Hungateiclostridium thermocellum Cel48s as described recently.[47]
Inhibition experiments were performed using a homogenous assay measuring NAD+ consumption.[80]−[82] Reactions were carried out in quadruplicate, and IC50 curves were fitted using sigmoidal dose response curve (four variables) in GraphPad Prism version 8.02. […] Assay conditions for PARP2, TNKS2, PARP10, and PARP15 (Tables 1–3) were recently reported.[44] The conditions for the proximity-enhanced mono-ART assays (Table 4) were also reported recently.[47] PARP6 (400 nM) inhibition was measured using the standard buffer (50 mM sodium phosphate pH 7.0) for the enhanced activity assay using 500 nM NAD^+ and 18 h incubation in r.t..

The target of data set [3] is T2, PARP2 (Homo sapiens, UniProt Q9UGN5).
T2 construct: made in house
T2 sequence (Q9UGN5 whole entry): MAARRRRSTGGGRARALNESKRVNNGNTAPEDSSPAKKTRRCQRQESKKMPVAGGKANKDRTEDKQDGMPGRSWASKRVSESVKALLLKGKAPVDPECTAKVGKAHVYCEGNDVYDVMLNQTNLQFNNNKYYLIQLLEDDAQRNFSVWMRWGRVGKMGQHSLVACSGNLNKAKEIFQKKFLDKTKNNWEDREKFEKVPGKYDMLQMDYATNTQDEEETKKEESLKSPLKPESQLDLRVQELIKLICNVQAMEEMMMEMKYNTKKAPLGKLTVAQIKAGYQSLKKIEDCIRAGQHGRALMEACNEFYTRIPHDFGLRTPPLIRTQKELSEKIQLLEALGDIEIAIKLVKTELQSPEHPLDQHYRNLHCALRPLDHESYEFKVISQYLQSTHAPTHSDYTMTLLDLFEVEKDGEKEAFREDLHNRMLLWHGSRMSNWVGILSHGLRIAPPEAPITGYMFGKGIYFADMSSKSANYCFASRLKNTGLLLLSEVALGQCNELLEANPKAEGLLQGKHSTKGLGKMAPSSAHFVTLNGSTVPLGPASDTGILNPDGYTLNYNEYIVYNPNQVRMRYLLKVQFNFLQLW
The data set can be described thus: biochemical. Conditions: > = less than 50% inhibition at highest concentration; ≫ = no inhibition; read-out: PARP2 IC50. In kind it is biochemical.

For data set [4], the system named is HEK293T cells. The experiment in a line: Cell viability assay (colorimetric WST-1). The note with it: HEK293T, 100, 50 and 10 μM, 24 h. In kind it is cell-based, human. The procedure:
Cell viability was assessed by colorimetric WST-1 (Cellpro-Roche, Sigma-Aldrich) assay following manufacturer’s instructions. […] Also, DMSO and 10 mM hydroxyurea (Sigma) were used as internal controls for induced cell toxicity. […] Thereafter, WST-1 reagent was pipetted followed by 2 h incubation and absorbance measuring by a Tecan Infinite M1000 or a Tecan Spark (Tecan) plate reader. The assay was performed in triplicate and repeated at least three times. Data were normalized to DMSO control.

The subject of data set [5] is TNKS1/2. The note with it: Figure 1; cited from earlier work.
Data set [6] deals with T3, PARP10 (Homo sapiens, UniProt Q53GL7).
T3 construct: made in house
T3 sequence (Q53GL7 1-1025): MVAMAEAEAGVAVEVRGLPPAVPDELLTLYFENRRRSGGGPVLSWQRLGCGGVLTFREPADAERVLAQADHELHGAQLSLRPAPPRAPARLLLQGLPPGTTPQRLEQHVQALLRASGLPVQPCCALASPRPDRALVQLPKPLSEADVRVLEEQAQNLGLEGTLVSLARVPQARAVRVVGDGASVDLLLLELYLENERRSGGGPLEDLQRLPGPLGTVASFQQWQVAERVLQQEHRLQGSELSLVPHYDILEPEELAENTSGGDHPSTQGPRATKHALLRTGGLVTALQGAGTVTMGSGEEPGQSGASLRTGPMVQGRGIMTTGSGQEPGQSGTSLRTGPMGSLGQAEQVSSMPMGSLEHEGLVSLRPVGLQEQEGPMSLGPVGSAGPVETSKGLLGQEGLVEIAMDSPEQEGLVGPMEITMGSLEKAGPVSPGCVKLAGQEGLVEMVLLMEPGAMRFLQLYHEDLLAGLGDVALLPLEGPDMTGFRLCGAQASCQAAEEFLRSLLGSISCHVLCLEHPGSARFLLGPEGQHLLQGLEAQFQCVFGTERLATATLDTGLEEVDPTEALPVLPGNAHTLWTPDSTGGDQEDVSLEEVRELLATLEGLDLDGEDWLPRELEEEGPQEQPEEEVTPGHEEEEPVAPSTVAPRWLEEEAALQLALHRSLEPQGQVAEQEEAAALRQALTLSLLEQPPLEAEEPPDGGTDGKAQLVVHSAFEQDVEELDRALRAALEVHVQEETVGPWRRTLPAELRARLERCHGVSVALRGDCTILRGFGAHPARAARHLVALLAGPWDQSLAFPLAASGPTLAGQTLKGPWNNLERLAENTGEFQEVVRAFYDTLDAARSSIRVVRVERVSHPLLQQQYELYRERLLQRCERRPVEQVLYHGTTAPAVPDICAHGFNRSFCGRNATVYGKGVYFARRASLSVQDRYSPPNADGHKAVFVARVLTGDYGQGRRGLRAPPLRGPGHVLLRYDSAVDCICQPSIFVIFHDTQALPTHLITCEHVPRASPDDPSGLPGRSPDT
The experiment in a line: Cellular MARylation assay (immunoblot of PARP10 auto-MARylation). In kind it is cell-based. The note with it: 10 μM, 16 h, HeLa cells. The procedure: Cells were lysed in RIPA lysis buffer [10 mM Tris pH 7.4; 150 mM NaCl; 1% NP-40; 1% desoxycholate; 0,1% SDS; protease inhibitor cocktail (Sigma-Aldrich) and 10 μM olaparib (Selleck Chemicals)], and lysates were analyzed via SDS-PAGE and immunoblotting using specific anti-PARP10 (Eurogentec),[93] anti-MAR/PAR (Cell Signaling, E6F6A, anti-poly/Mono-ADP-ribose antibody), and anti-α-tubulin (B 5-1-2, Sigma-Aldrich) antibodies.

In data set [7] the test system is PARP11. The note with it: Figure 1 ref 42; cited from earlier work.
For data set [8], the system named is TNKS2. Conditions: Figure 1 ref 19; cited from earlier work.
The target of data set [9] is T3, PARP10. The experiment in a line: biochemical. In kind it is biochemical.
The target of data set [10] is T4, PARP15 (Homo sapiens, UniProt Q460N3).
T4 construct: made in house
T4 sequence (Q460N3 1-678): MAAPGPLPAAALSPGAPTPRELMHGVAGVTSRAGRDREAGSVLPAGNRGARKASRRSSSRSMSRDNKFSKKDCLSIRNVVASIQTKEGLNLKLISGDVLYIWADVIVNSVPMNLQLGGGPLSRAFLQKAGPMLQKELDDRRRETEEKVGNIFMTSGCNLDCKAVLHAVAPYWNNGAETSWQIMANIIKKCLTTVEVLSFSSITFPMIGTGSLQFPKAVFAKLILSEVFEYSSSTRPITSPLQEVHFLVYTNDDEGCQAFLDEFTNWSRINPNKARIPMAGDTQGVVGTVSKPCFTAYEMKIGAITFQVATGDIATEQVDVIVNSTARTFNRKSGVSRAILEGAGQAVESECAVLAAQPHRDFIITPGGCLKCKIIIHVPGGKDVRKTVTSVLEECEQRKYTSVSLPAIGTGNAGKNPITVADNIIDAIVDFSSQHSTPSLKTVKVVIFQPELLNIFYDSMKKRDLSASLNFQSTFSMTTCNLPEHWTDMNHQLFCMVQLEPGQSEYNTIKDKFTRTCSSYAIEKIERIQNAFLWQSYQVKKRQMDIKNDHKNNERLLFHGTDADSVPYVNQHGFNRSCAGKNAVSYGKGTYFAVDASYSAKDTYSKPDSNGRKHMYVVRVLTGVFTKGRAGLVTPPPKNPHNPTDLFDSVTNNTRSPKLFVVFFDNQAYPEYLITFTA
The experiment in a line: biochemical. Format: biochemical.

Data set [11] relates to PARP7. The note with it: Figure 1 ref 40; cited from earlier work.
Where [12] appears, read: standard assay (Tables 1-3), * value limited by the protein concentration used, > less than 50% inhibition, ≫ no inhibition at the concentration, read-out: PARP15 IC50.

pIC50: −log10 of the molar value. Where two headings read alike, the source gives them in different places.

As to `NC(=O)c1ccc(OCC2CCC2)cc1` [OUL238], the negative-log IC50 (pIC50) (in general, the negative decadic logarithm of the IC50, by convention in mol/L) in data set [1] is 6.54.

In the case of `CC(C)c1ccc2c(c1)sc1nncn12` [Compound 6, 7-Isopropyl[1,2,4]triazolo[3,4-b][1,3]benzothiazole], the negative-log IC50 (pIC50) in data set [2] is 5.02; in data set [3], 5.35. The “cell toxicity (WST-1)” value in data set [4] is reported as “toxic in a dose-dependent manner”.

On to `O=c1[nH]nc2c3c(cccc13)N=C(CN1Cc3ccccc3C1)N2` [E7449], for which the negative logarithm of the IC50 (pIC50) in data set [5] was 7.30. Take `NC(=O)c1ccc(Oc2ccc(C(N)=O)cc2)cc1` [OUL35, reference compound]: in data set [6], the “inhibition of auto-MARylation of overexpressed PARP10 in cells” value is given as “did not observe a MAR-signal”. `CC#Cc1ccc2c(=O)[nH]c(CSc3ncccn3)nc2c1C` [ITK7]: in data set [7], the pIC50 is 7.85.

As to `CCOc1ccc(-c2nnc([C@H]3C[C@H](NC(=O)c4cccc5c4NCCN5)C3)n2-c2ccccc2F)nc1` [OM-153], in data set [8], the negative-log IC50 (pIC50) is 8.70.

Consider `COc1ccc(OC)c2c1sc1nnc(SC)n12` [Compound 28], for which the negative-log IC50 (pIC50) in data set [9] and in [10] was under 5.00 each time. On to `C[C@@H](COCCC(=O)N1CCN(c2ncc(C(F)(F)F)cn2)CC1)Nc1cn[nH]c(=O)c1C(F)(F)F` [RBN-2397], for which the negative-log IC50 (pIC50) in data set [11] is […]. On to `Oc1ccc(O)c2c1sc1nncn12` [Compound 18, [1,2,4]Triazolo[3,4-b][1,3]benzothiazol-5,8-diol], for which the negative logarithm of the IC50 (pIC50) in data set [2] is 5.51; in [3], 6.62. Moreover, in data set [4], the “cell toxicity (WST-1)” value was “toxic in a dose-dependent manner”. Take `COc1ccc(OC)c2c1sc1nnc(NC(=O)c3ccc(Cl)cc3)n12` [Compound 29]: the figures for the pIC50 in data set [9] and in data set [10] (setting [12]) were under 5.00 and 5.10, respectively. With `c1ccc2c(c1)sc1nncn12` [Compound 2], the negative-log IC50 (pIC50) is 5.60 in [2]; under 5.00 in data set [9] (standard assay (Tables 1-3), * value limited by the protein concentration used, > less than 50% inhibition, ≫ no inhibition at the concentration, read-out: PARP10 IC50); under 5.00 in data set [10] (setting [12]); 5.28 in data set [3].
